Measured values from patent US7037656B2, “Methods and compositions for identifying ligands for nuclear receptors” (priority 2000, dated 2006).

How the values were obtained:
[1] = target: T1, Dm ΔN EcR + Cf USP + GRIP1 (Drosophila melanogaster, UniProt P34021); test: Yeast 6x EcRE-lacZ β-galactosidase transactivation assay; type: cell-based, Drosophila melanogaster; Choristoneura fumiferana; settings: RH 5992 10 μM, 4 hours, DMSO control 1.149
T1 construct: ubiquitin (human, 76 aa) (N, cleaved yes); expressed in transfected cells
Method: (§1) Briefly, yeast cells are cultured in 5 mL of YPD liquid medium overnight at 30° C. The cell culture was diluted 1:20 in YPD media and further grown until cell density reached an O.D of 0.6. at OD600. The cells were pelleted by centrifugation and washed with 10 mL of TE+0.1M lithium acetate. Cells are then resuspended in 10 mL TE+0.1M lithium acetate and incubated at 30° C. for 1 hour. Cells are collected and resuspended in 0.5 mL of TE+ 0.1M lithium acetate. Aliquots of cells (50 μL), were incubated for 15 minutes at 30° C. with 1–2 μg plasmid DNA in the presence of 5 μg of denatured salmon sperm DNA as DNA carrier. In the case of co-transformation, the indicated plasmids were added simultaneously. 50% polyethyleneglycol of molecular weight 4000, diluted in TE, was added to a final concentration of 35%. […]
(§2) Using the transformation method set forth above, yeast were co-transformed with a reporter gene as shown in FIG. 2 and the expression vector encoding the full-length D. melanogaster ecdysone receptor, DmEcR (FIG. 3A) in the presence or absence of the Dm EcR heterodimer partner, DmUSP (FIG. 4A). […] As the N-terminal portion of the Dm EcR receptor is reported to play a role in ligand independent transactivation, an expression vector containing an N-terminal deletion in the EcR was constructed (see FIG. 3B) and assessed in the β-galactosidase assays described above. […]

[2] = target: T2, Dm ΔN EcR +Cf ΔA/B USP + GRIP1 (Drosophila melanogaster, UniProt P34021); test: as above; type: cell-based, Drosophila melanogaster; Choristoneura fumiferana; settings: RH 5992 10 μM, 4 hours, DMSO control 0.235
T2 construct: ubiquitin (human, 76 aa) (N, cleaved yes); expressed in transfected cells
Method: as §1, §2

[3] = target: T3, Aa AB EcR/Aa USPa and SMRT (Aedes aegypti, UniProt P49880); test: Yeast 6x EcRE-lacZ reporter assay with SMRT (ligand-dependent down regulation); type: cell-based; settings: 10 μM; Aa AB EcR/Aa USPa co-expressed with SMRT, constitutive reporter expression without ligand (FIG. 10A)
T3 construct: human ubiquitin (76 aa) (N, cleaved yes); expressed in transfected cells; host or cells: yeast (Saccharomyces cerevisiae)
Source text: FIGS. 10A and 10B are graphs showing the roles of the coactivators and co-repressors in transactivation of AaΔEcR. Interaction of different transcriptional factors in combination with the heterodimers AaΔEcR/USPa or AaΔEcR/USPb (FIG. 10A). […] The yeast strains carrying the reporter plasmid which contains 6 EcRE response elements coupled with E. coli β gal gene in combination with the presence of different plasmids for expression of different USPs, AaΔEcR and coactivators/repressors. The final concentration of all ecdysteroid analogues was 10 μM. The data are presented as a median set of at least 8 independent experiments plus SD.
as §1, with “simultaneously.” for “simultaneously. 50% polyethyleneglycol of molecular weight 4000, diluted in TE, was added to a final concentration of 35%.”

T1 sequence (P34021 221-878 limits assumed, stated change not applied): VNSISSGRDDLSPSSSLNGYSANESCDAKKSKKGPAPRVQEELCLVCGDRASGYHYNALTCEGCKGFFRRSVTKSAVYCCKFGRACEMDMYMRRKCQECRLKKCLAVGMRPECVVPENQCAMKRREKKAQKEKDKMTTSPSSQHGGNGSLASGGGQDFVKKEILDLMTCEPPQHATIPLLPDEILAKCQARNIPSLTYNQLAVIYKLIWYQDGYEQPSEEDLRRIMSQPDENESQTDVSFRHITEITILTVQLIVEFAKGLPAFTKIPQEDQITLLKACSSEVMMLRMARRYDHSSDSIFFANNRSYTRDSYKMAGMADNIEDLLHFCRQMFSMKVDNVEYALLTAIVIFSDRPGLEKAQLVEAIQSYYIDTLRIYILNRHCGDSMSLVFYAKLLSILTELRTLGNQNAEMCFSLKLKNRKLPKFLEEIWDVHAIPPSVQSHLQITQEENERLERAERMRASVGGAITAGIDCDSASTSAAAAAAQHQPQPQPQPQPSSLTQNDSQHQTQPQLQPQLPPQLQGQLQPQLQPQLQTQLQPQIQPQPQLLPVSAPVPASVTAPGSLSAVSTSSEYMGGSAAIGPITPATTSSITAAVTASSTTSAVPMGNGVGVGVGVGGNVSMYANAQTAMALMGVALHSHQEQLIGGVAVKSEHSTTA
T1 sequence (O76202 whole entry partner): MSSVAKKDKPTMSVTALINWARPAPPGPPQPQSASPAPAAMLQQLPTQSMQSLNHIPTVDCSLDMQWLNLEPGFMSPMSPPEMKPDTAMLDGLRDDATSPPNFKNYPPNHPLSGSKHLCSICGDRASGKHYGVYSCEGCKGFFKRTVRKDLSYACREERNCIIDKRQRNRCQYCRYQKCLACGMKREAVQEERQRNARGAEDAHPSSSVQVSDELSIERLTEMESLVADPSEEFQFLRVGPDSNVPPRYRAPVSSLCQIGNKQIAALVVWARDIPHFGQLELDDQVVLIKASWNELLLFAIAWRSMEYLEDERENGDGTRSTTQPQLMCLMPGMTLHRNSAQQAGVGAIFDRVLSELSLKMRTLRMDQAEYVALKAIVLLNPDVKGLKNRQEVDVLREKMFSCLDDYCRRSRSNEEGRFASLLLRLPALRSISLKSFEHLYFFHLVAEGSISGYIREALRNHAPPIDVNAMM
T1 sequence (Q61026 322-1121 partner limits assumed): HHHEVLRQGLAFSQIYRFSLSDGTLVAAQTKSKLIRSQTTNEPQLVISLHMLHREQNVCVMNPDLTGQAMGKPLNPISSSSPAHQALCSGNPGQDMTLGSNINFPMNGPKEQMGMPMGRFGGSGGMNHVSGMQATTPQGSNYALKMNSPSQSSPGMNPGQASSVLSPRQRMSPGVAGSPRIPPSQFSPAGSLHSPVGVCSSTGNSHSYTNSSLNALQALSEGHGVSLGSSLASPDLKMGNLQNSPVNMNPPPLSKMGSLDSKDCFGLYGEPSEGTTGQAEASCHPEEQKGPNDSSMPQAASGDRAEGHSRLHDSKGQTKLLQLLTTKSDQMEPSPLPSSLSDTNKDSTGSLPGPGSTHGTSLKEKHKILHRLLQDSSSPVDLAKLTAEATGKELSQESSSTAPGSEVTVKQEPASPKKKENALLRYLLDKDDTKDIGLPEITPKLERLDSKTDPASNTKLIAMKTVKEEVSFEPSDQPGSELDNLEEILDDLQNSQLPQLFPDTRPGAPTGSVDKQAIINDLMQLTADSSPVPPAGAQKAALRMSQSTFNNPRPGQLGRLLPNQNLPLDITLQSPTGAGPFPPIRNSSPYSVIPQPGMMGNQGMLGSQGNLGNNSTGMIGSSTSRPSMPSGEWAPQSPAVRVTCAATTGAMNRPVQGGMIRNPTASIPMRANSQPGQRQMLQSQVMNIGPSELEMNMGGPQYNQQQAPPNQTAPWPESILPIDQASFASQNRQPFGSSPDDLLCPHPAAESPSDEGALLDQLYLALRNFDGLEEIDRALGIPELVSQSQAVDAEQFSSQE
T2 sequence (P34021 221-878, stated change not applied): as the sequence (P34021 221-878 limits assumed, stated change not applied) above
T2 sequence (O76202 with tags, fused parts or gaps partner): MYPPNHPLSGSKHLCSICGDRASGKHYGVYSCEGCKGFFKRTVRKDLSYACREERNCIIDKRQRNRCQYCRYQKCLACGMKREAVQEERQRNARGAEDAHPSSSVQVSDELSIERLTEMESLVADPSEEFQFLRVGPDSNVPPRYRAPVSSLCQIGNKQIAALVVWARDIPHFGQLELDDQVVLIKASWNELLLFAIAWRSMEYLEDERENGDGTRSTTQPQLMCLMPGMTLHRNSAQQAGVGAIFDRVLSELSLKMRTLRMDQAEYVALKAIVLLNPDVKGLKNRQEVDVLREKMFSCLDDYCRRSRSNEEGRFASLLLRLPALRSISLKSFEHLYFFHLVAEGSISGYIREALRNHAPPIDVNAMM
T3 sequence (P49880 with tags, fused parts or gaps): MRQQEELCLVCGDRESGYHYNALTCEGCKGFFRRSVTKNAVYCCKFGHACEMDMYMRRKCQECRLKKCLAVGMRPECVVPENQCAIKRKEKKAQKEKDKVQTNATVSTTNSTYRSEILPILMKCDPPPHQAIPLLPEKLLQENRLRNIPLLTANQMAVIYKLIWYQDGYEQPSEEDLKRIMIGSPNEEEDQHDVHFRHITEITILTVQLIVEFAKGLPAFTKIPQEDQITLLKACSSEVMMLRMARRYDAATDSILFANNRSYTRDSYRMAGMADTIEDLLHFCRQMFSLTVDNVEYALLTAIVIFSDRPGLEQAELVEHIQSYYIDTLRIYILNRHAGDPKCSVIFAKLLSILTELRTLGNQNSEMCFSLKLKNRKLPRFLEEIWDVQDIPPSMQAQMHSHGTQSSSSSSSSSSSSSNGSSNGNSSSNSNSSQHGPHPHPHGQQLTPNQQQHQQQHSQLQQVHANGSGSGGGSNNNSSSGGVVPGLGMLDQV

Which results are given for `CCc1ccc(C(=O)NN(C(=O)c2cc(C)cc(C)c2)C(C)(C)C)cc1` [RH 5992, tebufenozide]?
β-galactosidase activity [1]: 1.409; β-galactosidase activity [2]: 0.590; effect on reporter gene expression (in words) [3]: suppression of the levels of reporter gene expression
